Reference: patent US20250161233A1, “VINYLATION COUPLED DERIVATIVE OF BETA-ELEMENE, AND PREPARATION METHOD AND USE THEREOF IN PREPARATION OF ANTITUMOR DRUG” (HANGZHOU NORMAL UNIVERSITY, priority 2022, published 2025)

Legend:
[1] = test system: human lung cancer cells (A549); assay: Tumor cell proliferation inhibition (CCK-8), A549; format: cell-based; details: 48 h; for inhibition at 100 µM: read-out: Anti-proliferative activity at 100 μM by concentration (%) A549 (tumor cell inhibition rate)
Procedure: (§1) Human colon cancer cells (HCT116), human lung cancer cells (A549).
(§2) 1) The test cells in a logarithmic growth phase were trypsinized and counted, inoculated in a 96-well culture plate at a concentration of 5×10^4/mL, 100 μL per well (5×10^3 cells per well), and incubated at 37° C. in a 5% CO2 incubator for 24 h.
(§3) 2) A drug to be tested was diluted to different concentrations with McCoy'S 5A or RPMI 1640 complete medium. The experimental group was replaced with a culture solution containing different concentrations of the tested samples, and the control group was replaced with a culture solution containing the same volume of solvent (DMSO). Three parallel wells were set up in each group, and the culture was continued for 48 h in a 5% CO2 incubator at 37° C.
(§4) HCT116 cells used the McCoy'S 5A complete medium, and A549 cells used the RPMI 1640 complete medium.
(§5) 3) 10 μL of a CCK-8 solution was added to each well, incubated at 37° C. for 1 h to 4 h, and an absorbance (OD value) of each well at 490 nm was measured with a microplate reader.
(§6) 4) A survival rate and an inhibition rate were calculated with the following formulas:
(§7) Cell survival rate=[(As−Ab)/(Ac−Ab)]×100%
(§8) Inhibition rate=[(Ac−As)/(Ac−Ab)]×100%
(§9) An S-type dose-survival curve was plotted using GraphPad Prism 7.0 software and a nonlinear regression model, and IC50 values were calculated. • As: absorbance of the experimental well (medium containing cells, CCK-8, and the drug to be tested) • Ac: absorbance of control wells (medium containing cells, CCK-8, and solvent (DMSO)) • Ab: absorbance of blank wells (medium without cells and drug to be tested, CCK-8)

[2] = test system: Human colon cancer cells (HCT116); assay: Tumor cell proliferation inhibition (CCK-8), HCT116; format: cell-based; details: for inhibition at 100 µM: HCT-116, 100 μM of the compound, read-out: Anti-proliferative activity at 100 μM by concentration (%) HCT116 (tumor cell inhibition rate)
Procedure: as §1, §2, §3, §4, §5, §6, §7, §8, §9

[3] = Homo sapiens, 100 μM of the compound

IC50 [1] [µM] | IC50 ([2]; 48 h) [µM] | SMILES | inhibition at 100 µM [1, 3] [%] | IC50 ([1]; Homo sapiens) [µM] | inhibition at 100 µM ([2]; Homo sapiens, 48 h) [%] | IC50 ([2]; Homo sapiens, HCT-116, 48 h) [µM] | Anti-proliferative activity at 100 μM by concentration (%) A549 (tumor cell inhibition rate) ([1]; 100 μM of the compound) [%] | Anti-proliferative activity at 100 μM by concentration (%) HCT116 (tumor cell inhibition rate) ([2]; 100 μM of the compound, 48 h) [%]
 |  | C=C[C@]1(C)CC[C@@H](C(=C)C/C=C/c2ccc(-n3cncn3)cc2)C[C@H]1C(=C)C [Compound 4] | 97.5 ± 0.4 | 57.2 ± 2.95 | 99.8 ± 0.08 | 50.9 ± 0.8 |  | 
 |  | C=C[C@]1(C)CC[C@@H](C(=C)C/C=C/c2ccc(C(=O)OCC[C@@H](C)CCC=C(C)C)cc2)C[C@H]1C(=C)C [Compound 6] | 14.4 ± 0.5 |  | 21.7 ± 0.8 |  |  | 
 |  | C=C[C@]1(C)CC[C@@H](C(=C)C/C=C/c2ccc(C(=O)OCCOc3ccc(/C(=C(/CCCl)c4ccccc4)c4ccccc4)cc3)cc2)C[C@H]1C(=C)C [Compound 10] | 40.4 ± 0.6 |  | 13.5 ± 0.3 |  |  | 
227 ± 1.2 | 782 ± 51 | C=C[C@]1(C)CC[C@@H](C(=C)C)C[C@H]1C(=C)C [β-elemene, reference compound] |  |  |  |  | 10.6 ± 0.5 | 0.6 ± 0.5
